tested on: not listed separately; test: Acute Toxicity; assay type: in vivo, SD male rat; conditions: SD male rat (16 weeks old), hypodermic, 60 mg/kg in 0.2% methylcellulose
Description: The compound of Example A4 dissolved in 0.2% of methylcellulose solution was hypodermically administered to SD male rat (16 weeks old) at a dose of 60 mg/kg.

Row | SMILES | survival
1 | CCC(=O)O[C@H]1[C@@H](OC(=O)CC)C=C2C=C3OC(=O)C(C)=C3C[C@]2(C)[C@H]1C [Example A4, (4aR,5R,6R,7S)-6,7-Dipropionyloxy-4a,5,6,7-tetrahydro-3,4a,5-trimethylnaphtho[2,3-b]furan-2(4H)-one] | all the animals survived

same assay, conditions: rat, in vivo, 60 mg/kg

Row | SMILES | toxicity
2 | CCC(=O)O[C@H]1[C@@H](OC(=O)CC)C=C2C=C3OC(=O)C(C)=C3C[C@]2(C)[C@H]1C [Example A4, (4aR,5R,6R,7S)-6,7-Dipropionyloxy-4a,5,6,7-tetrahydro-3,4a,5-trimethylnaphtho[2,3-b]furan-2(4H)-one] | no significant toxicity

tested on: not listed separately; test: Solubility; assay type: physicochemical; conditions: organic solvents

Row | SMILES | Solubility (solvents in which soluble)
3 | CC(=O)O[C@H]1[C@@H](O)C=C2C=C3OC(=O)C(C)=C3C[C@]2(C)[C@H]1C [PF1092A] | soluble in chloroform, acetone, ethyl acetate, methanol and dimethyl sulioxide
4 | CC(=O)O[C@H]1C=C2C=C3OC(=O)C(C)=C3C[C@]2(C)[C@@H](C)[C@H]1O [PF1092B] | soluble in chloroform, acetone, ethyl acetate, methanol and dimethyl sulioxide
5 | CC1=C2C[C@@]3(C)C(=C[C@H](O)[C@H](O)[C@@H]3C)C=C2OC1=O [PF1092C] | soluble in chloroform, acetone, ethyl acetate, methanol and dimethyl sultoxide

same assay, conditions: water and hexane

Row | Solubility (solvents in which insoluble) | SMILES
6 | insoluble in water and hexane | CC(=O)O[C@H]1[C@@H](O)C=C2C=C3OC(=O)C(C)=C3C[C@]2(C)[C@H]1C [PF1092A]
7 | insoluble in water and hexane | CC(=O)O[C@H]1C=C2C=C3OC(=O)C(C)=C3C[C@]2(C)[C@@H](C)[C@H]1O [PF1092B]
8 | insoluble in water and hexane | CC1=C2C[C@@]3(C)C(=C[C@H](O)[C@H](O)[C@@H]3C)C=C2OC1=O [PF1092C]

target: T1, progesterone receptor (Sus scrofa, UniProt D0EWS6); test: progesterone receptor binding inhibition ([^3 H]-progesterone, cytosol from uteri of hogs); conditions: [^3 H]-progesterone ligand, hog uterus cytosol, 60 min at 4° C.; read-out: Inhibitory activity (IC50) against progesterone receptor binding
T1 construct: from tissue; host or cells: hog uterus, cytosol (100,000×g supernatant)
T1 sequence (D0EWS6 1-934): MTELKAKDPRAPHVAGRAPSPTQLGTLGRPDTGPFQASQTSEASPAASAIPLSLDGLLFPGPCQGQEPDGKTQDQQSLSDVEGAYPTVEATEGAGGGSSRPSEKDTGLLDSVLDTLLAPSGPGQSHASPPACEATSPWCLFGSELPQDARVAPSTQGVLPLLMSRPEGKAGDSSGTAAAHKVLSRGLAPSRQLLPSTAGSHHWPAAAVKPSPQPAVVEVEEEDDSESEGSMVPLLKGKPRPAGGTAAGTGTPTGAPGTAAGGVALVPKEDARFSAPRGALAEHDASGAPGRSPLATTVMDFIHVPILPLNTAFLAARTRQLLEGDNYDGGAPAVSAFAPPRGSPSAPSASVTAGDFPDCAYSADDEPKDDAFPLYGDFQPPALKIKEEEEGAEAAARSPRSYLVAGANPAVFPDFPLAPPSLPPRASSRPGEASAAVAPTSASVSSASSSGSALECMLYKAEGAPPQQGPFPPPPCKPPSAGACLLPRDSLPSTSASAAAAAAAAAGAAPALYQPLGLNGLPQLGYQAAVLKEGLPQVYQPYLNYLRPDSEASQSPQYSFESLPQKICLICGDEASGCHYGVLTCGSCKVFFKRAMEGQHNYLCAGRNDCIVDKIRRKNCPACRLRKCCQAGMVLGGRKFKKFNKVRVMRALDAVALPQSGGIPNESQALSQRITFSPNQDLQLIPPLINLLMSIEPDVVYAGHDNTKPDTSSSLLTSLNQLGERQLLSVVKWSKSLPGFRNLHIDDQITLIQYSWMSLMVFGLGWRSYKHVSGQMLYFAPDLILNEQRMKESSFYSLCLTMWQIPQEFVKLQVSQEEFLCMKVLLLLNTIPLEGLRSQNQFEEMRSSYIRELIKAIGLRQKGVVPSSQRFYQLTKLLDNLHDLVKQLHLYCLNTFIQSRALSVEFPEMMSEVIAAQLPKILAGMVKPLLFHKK
Description: That is, uteri taken from hogs in 5 mM phosphate buffer were disrupted using Polytron homogenizer, and the resulting solution was centrifuged (100,000×g, 30 min) to separate the supernatant, thereby preparing a cytosol containing progesterone receptor. […] Then, 100 μl of a 0.5% activated carbon solution was added to the reaction solution, and the mixture was allowed to stand for 10 min and then centrifuged (2,000×g, 10 min). The radioactivity of the supernatant was measured with a liquid scintillation counter.
Separately, the radioactivity was measured in the same manner as described above, except that no test drug was added. Further, the radioactivity was measured in the same manner as described above, except that 10 μl of Medroxyprogesterone Acetate (MPA) (10 μg/ml) was added instead of the test drug. The radioactivity with no test drug added was defined as the amount of total binding of [^3 H]-progesterone to the cytosol, and the radioactivity with MPA added was defined as the amount of non-specific binding. The inhibition ratio was calculated from these measured values by the following equation to determine the binding inhibitory activity (IC50). [formula]

Row | IC50 [nM] | SMILES
9 | 53 | CCCC(=O)O[C@H]1CC=C2C=C3OC(=O)C(C)=C3C[C@]2(C)[C@H]1C (relative stereo) [Example B4, (4aR*,5R*,6S*)-6-Butyryloxy-4a,5,6,7-tetrahydro-3,4a,5-trimethylnaphtho[2,3-b]furan-2(4H)-one]
10 | 54 | CC1=C2C[C@@]3(C)C(=CC[C@H](OC(=O)c4ccccc4)[C@@H]3C)C=C2OC1=O (relative stereo) [Example B7, (4aR*,5R*,6S*)-6-Benzoyloxy-4a,5,6,7-tetrahydro-3,4a,5-trimethylnaphtho[2,3-b]furan-2(4H)-one]
11 | 66 | CCC(=O)O[C@H]1CC=C2C=C3OC(=O)C=C3C[C@]2(C)[C@H]1C (relative stereo) [Example B28]
12 | 60 | C[C@H]1[C@@H](OC(=O)c2ccco2)CC=C2C=C3OC(=O)C=C3C[C@@]21C (relative stereo) [Example B30, (4aR*,5R*,6S*)-4a,5-Dimethyl-6-(2-furoyl)oxy-4a,5,6,7-tetrahydronaphtho[2,3-b]furan-2(4H)-one]
13 | 17 | CC1=C2C[C@@]3(C)C(=C[C@H](O)[C@H](OC(=O)C4CC4)[C@@H]3C)C=C2OC1=O [Example A17, (4aR,5R,6R,7S)-6-Cyclopropylcarbonyloxy-7-hydroxy-4a,5,6,7-tetrahydro-3,4a,5-trimethylnaphtho[2,3-b]furan-2(4H)-one]
14 | 47 | CC1=C2C[C@@]3(C)C(=C[C@H](O)[C@H](OC(=O)C4CCCCC4)[C@@H]3C)C=C2OC1=O [Example A19, (4aR,5R,6R,7S)-6-Cyclohexylcarbonyloxy-7-hydroxy-4a,5,6,7-tetrahydro-3,4a,5-trimethylnaphtho[2,3-b]furan-2(4H)-one]
15 | 27 | CC1=C2C[C@@]3(C)C(=C[C@H](O)[C@H](OC(=O)c4ccccc4)[C@@H]3C)C=C2OC1=O [Example A21, (4aR,5R,6R,7S)-6-Benzoyloxy-7-hydroxy-4a,5,6,7-tetrahydro-3,4a,5-trimethylnaphtho[2,3-b]furan-2(4H)-one]
16 | 18 | CC1=C2C[C@@]3(C)C(=C[C@H](O)[C@H](OC(=O)c4ccc([N+](=O)[O-])cc4)[C@@H]3C)C=C2OC1=O [Example A23, (4aR,5R,6R,7S)-7-Hydroxy-6-(4-nitrobenzoyl)oxy-4a,5,6,7-tetrahydro-3,4a,5-trimethylnaphtho[2,3-b]furan-2(4H)-one]
17 | 400 | CCO[C@@H]1C=C2C=C3OC(=O)C(C)=C3C[C@]2(C)[C@@H](C)[C@H]1OC(=O)c1cccs1 [Example A41, (4aR,5R,6R,7R)-7-Ethoxy-6-(2-thiophencarbonyl)oxy-4a,5,6,7-tetrahydro-3,4a,5-trimethylnaphtho[2,3-b]furan-2(4H)-one]
18 | 29 | CC1=C2C[C@@]3(C)C(=C[C@@H](O)[C@H](OC(=O)c4cccs4)[C@@H]3C)C=C2OC1=O [Example A45, (4aR,5R,6R,7R)-7-Hydroxy-6-(2-thiophencarbonyl)oxy-4a,5,6,7-tetrahydro-3,4a, 5-trimethylnaphtho[2,3-b]furan-2(4H)-one]
19 | 797 | CC(=O)O[C@@H]1CC=C2C=C3OC(=O)C(C)=C3C[C@@]2(C)[C@@H]1C [Example B42 (Nonnatural type)]

More lines, now with the values behind:

Row | SMILES | IC50 [nM]
20 | CC(=O)O[C@H]1CC=C2C=C3OC(=O)C(C)=C3C[C@]2(C)[C@H]1C (relative stereo) [Example B2, (4aR*,5R*,6S*)-6-Acetoxy-4a,5,6,7-tetrahydro-3,4a,5-trimethylnaphtho[2,3-b]furan-2(4H)-one] | 55
21 | CC(=O)O[C@H]1CC=C2C=C3OC(=O)C=C3C[C@]2(C)[C@H]1C (relative stereo) [Example B27, (4aR*,5R*,6S*)-6-Acetoxy-4a,5-dimethyl-4a,5,6,7-tetrahydronaphtho [2,3-b]furan-2(4H)-one] | 39
22 | CC(=O)O[C@H]1CC=C2C=C3OC(=O)C(C)=C3C[C@]2(C)[C@H]1C [B42 (Natural type)] | 33
23 | CCC(=O)O[C@H]1C=C2C=C3OC(=O)C(C)=C3C[C@]2(C)[C@@H](C)[C@H]1O [Example A1, (4aR,5R,6R,7S)-6-Hydroxy-7-propionyloxy-4a,5,6,7-tetrahydro-3,4a,5-trimethylnaphtho[2,3-b]furan-2(4H)-one] | 1000
24 | CC1=C2C[C@@]3(C)C(=C[C@H](O)[C@H](OC(=O)c4ccco4)[C@@H]3C)C=C2OC1=O [Example A3, (4aR,5R,6R,7S)-6-(2-Furancarbonyl)oxy-7-hydroxy-4a,5,6,7-tetrahydro-3,4a,5-trimethylnaphtho[2,3-b]furan-2(4H)-one] | 12
25 | CCC(=O)O[C@H]1[C@@H](OC(=O)CC)C=C2C=C3OC(=O)C(C)=C3C[C@]2(C)[C@H]1C [Example A4, (4aR,5R,6R,7S)-6,7-Dipropionyloxy-4a,5,6,7-tetrahydro-3,4a,5-trimethylnaphtho[2,3-b]furan-2(4H)-one] | 32
26 | CCCNC(=O)O[C@H]1[C@@H](O)C=C2C=C3OC(=O)C(C)=C3C[C@]2(C)[C@H]1C [Example A6b, (4aR,5R,6R,7S)-7-Hydroxy-6-(n-propyl)carbamoyloxy-4a,5,6,7-tetrahydro-3,4a,5-trimethylnaphtho[2,3-b]furan-2(4H)-one] | 288
27 | CC1=C2C[C@@]3(C)C(=C[C@H](OCc4ccccc4)[C@H](O)[C@@H]3C)C=C2OC1=O [Example A7, (4aR,5R,6R,7S)-7-Benzyloxy-6-hydroxy-4a,5,6,7-tetrahydro-3,4a,5-trimethylnaphtho[2,3-b]furan-2(4H)-one] | 2840
28 | COCO[C@H]1C=C2C=C3OC(=O)C(C)=C3C[C@]2(C)[C@@H](C)[C@H]1OC(=O)c1ccccc1 [Example A8, (4aR,5R,6R,7S)-6-Benzoyloxy-7-methoxymethoxy-4a,5,6,7-tetrahydro-3,4a,5-trimethylnaphtho[2,3-b]furan-2(4H)-one] | 97
29 | CCC(=O)O[C@H]1[C@H](OC)C=C2C=C3OC(=O)C(C)=C3C[C@]2(C)[C@H]1C [Example A10, (4aR,5R,6R,7R)-7-Methoxy-6-propionyloxy-4a,5,6,7-tetrahydro-3,4a,5-trimethylnaphtho[2,3-b]furan-2(4H)-one] | 75
30 | CC1=C2C[C@@]3(C)C(=C[C@H](O)[C@H](OC(=O)CCl)[C@@H]3C)C=C2OC1=O [Example A12, (4aR,5R,6R,7S)-6-Chloroacetoxy-7-hydroxy-4a,5,6,7-tetrahydro-3,4a,5-trimethylnaphtho[2,3-b]furan-2(4H)-one] | 83
31 | CO[C@H]1C=C2C=C3OC(=O)C(C)=C3C[C@]2(C)[C@@H](C)[C@H]1OC(C)=O [Example A30, (4aR,5R,6R,7S)-6-Acetoxy-7-methoxy-4a,5,6,7-tetrahydro-3,4a, 5-trimethylnaphtho[2,3-b]furan-2(4H)-one] | 47
32 | CC(=O)O[C@@H]1C=C2C=C3OC(=O)C(C)=C3C[C@]2(C)[C@@H](C)[C@H]1OC(=O)c1ccco1 [Example A44, (4aR,5R,6R,7R)-7-Acetoxy-6-(2-furancarbonyl)oxy-4a,5,6,7-tetrahydro-3,4a,5-trimethylnaphtho[2,3-b]furan-2(4H)-one] | 276

— patent US6255339A, “Tetrahydronaphthofuranone derivatives and process for producing the same” (Meiji Seika Kaisha, Ltd., priority 1996, dated 2001)
